Values of other authors as cited in patent publication US12533348B2, “Ferroportin-inhibitors for the use in the treatment of transfusion-dependent beta-thalassemia (TDT)” (Vifor (International) AG, priority 2019, dated 2026).

Tested on: guinea pigs
Conditions: intravenous administration, cited from earlier work

Which results are given for O=C(NCc1ncccc1F)c1csc(CCNCc2nc3ccccc3[nH]2)n1 [VIT-2653]?
NTBI and Hb levels following exchange transfusion (guinea pigs): significantly improved; total iron in kidneys following transfusion (guinea pigs): can be reduced; occurrence of changes in plasma creatinine >0.3 mg/dL (indicator of early AKI) (transfused guinea pigs): significantly reduced
